In patent US7150974B1, “Parathyroid hormone receptor binding method” (The General Hospital Corporation, priority 1991, dated 2006):

Experiments:
[1] = molecular target: T1, opossum kidney PTH/PTHrp receptor clone, OK-O (Didelphis virginiana, UniProt P25107, I132F/S86P); test: Radioreceptor assay, COS cells expressing OK-O; type: binding; settings: FIG. 11
T1 construct: expressed in transfected cells; host or cells: COS cells, transient, plasmid OK-O (pcDNA I)
Experimental: [Nle^8,Nle^18,Tyr^34]bPTH-(1-34)amide (NlePTH), and [Tyr^36]PTHrP(1-36)amide(PTHrP) were iodinated with Na^125I (carrier free, New England Nuclear, Boston, Mass.) as previously reported (Segre et al., J. Biol. Chem. 254: 6980, 1979), and purified by reverse-phase HPLC. In brief, the labeled peptide was dissolved in 0.1% trifluoracetic acid (TFA), applied to a C18 Sep-pak cartridge (Waters Associates, Inc., Milford, Mass.) and eluted with a solution of 60% acetonitrile in 0.1% TFA. After lyophilization, the radioligand then was applied to C18-μBondapak column (3.9 mm×30 cm. Waters Associates) and eluted over 30 min with a linear gradient of 30-50% acetonitrile-0.1% TFA at a flow rate of 2 ml/min. The radioligand eluted in two peaks; the first peak, which eluted at approximately 38% acetonitrile, was used in these studies because it gave higher total and specific bindings. The specific activity was 500±75 mCi/mg, which corresponds to an average iodine-peptide ratio of 1.
COS-7 cells were grown in 15 cm plates in DMEM, 10% heat-inactivated […], 10 mg/L gentamycin until 80-90% confluent. Twenty-four hours after transfection by the DEAE/Dextran method (Sambrook et al., supra), with 1-2 μg of plasmid DNA, the cells were trypsinized and replated in multiwell plastic dishes (16 or 35 mm diameter, Costar, Cambridge, Mass.) at a cell concentration of 5×10^4 cells/cm^2). Cell number increased only slightly after transfection. After continuing culture for another 48 h, radiorecepter assays were performed. […]
Incubations were terminated by aspirating the buffer, and repeatedly (×3) washing the culture dishes, containing the adherent cells with chilled 0.9% NaCl solution, over a 15 sec period. Cell-bound radioactivity was recovered by the sequential addition (×3) of 1 N NaOH (200 μl) to each well. […] A second and third extraction with 1 N NaOH (200 μl) were combined with the first, and the total radioactivity was counted in a γ-spectrometer (Packard Instruments, Downers Grove, Ill.). […]

[2] = molecular target: T2, opossum kidney PTH/PTHrP receptor clone, OK-H (Didelphis virginiana, UniProt P25107, I132F/S86P); test: Intracellular free calcium, COS cells expressing OK-H; type: cell-based; settings: FIG. 10, smaller extent, or not at all, compared with OK-O or R15B
T2 construct: expressed in transfected cells; host or cells: COS cells, transient, plasmid OK-H (pcDNA I)
T2 sequence (P25107 other isoform, or with tags, fused parts or gaps S86P/I132F): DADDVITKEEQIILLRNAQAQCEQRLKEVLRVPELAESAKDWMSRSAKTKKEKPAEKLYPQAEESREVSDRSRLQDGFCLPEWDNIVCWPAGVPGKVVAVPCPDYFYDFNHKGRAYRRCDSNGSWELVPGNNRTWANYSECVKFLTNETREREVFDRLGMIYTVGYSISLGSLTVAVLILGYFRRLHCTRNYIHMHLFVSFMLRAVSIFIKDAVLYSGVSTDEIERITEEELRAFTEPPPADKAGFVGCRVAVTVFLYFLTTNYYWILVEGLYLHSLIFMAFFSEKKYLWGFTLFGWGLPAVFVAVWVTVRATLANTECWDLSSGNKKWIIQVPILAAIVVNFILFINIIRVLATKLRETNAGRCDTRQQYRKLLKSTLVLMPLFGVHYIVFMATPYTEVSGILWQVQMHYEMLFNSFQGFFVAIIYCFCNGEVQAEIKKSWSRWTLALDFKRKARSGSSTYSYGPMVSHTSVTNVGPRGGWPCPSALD
Experimental: Measurements of intracellular calcium levels in cells transfected with PTH/PTHrP receptor cDNAs were performed using Fura-2 AM (acetomethoxy ester of Fura-2, Molecular Probes Inc., Eugene, Oreg.) loaded cells. Details of the methodology are:
Coverslips plated with COS cells were incubated in Fura-2 AM loading buffer containing, in mM: HEPES (N-[2-Hydroxyethyl]piperazine-N′-[2-ethanesulfonic acid]), 20; CaCl2, 1; KCl 5; NaCl, 145; MgSO4, 0.5; NaHCO3, 25; K2HPO4, 1.4; glucose, 10; and Fura-2 AM 91-(2-5′-carboxyoxazol-2′-yl)-6-aminobenzofuran-5oxy-(2′-amino-5′-methylphenoxy)ethane-N,N,N′,N′-tetraaecetic acid acetomethoxy ester), 0.5; at 37° C. at pH7.4, aerated with 95% air and 5% CO2 for 45 minutes. Cells loaded with Fura-2 AM were then washed with a modified Krebs-Heinseleit (KH) buffer containing, in mM: HEPES, 20; CaCl2, 1; KCl, 5; NaCl, 145; MgSO4, 0.5; Na2HPO4, 1; glucose, 5; pH7.4. To check that cleavage of the ester occurred, the excitation spectra after different times of Fura-2 AM incubation were measured. […]
To measure fluorescence of individual cells, the cover slips were placed in a microscope tissue chamber (Biophysica Technologies, Inc., MD). […] Fura-2 fluorescence was excited with a 75 watt Xenon arc lamp placed at the focal point of a condenser (Photon Technologies International (PTI) Inc., NJ). […]

T1 sequence (P25107 27-585 S86P/I132F): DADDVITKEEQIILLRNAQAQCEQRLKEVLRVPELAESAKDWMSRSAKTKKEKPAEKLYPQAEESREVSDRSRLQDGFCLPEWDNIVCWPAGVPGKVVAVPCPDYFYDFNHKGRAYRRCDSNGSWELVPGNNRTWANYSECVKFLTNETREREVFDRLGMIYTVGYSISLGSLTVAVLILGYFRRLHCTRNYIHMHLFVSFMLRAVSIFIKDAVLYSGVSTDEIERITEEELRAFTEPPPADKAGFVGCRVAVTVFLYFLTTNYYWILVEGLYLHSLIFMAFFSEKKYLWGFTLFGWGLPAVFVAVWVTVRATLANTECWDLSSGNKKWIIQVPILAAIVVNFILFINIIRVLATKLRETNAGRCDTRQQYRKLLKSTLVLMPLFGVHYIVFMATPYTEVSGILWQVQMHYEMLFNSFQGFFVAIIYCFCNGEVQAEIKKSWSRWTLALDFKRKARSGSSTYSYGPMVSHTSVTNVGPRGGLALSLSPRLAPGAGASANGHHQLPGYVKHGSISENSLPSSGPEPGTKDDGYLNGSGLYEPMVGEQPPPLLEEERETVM

[Nle^8,18, Tyr^34]bPTH(1-34)amide was tested. Which “inhibition of 125I-PTHrP binding by competitor” value [1] did it give?
The value was “inhibited”.

And the “increase in concentration of intracellular free calcium (mean)” value [2]?
Its value is 39 nM.
